According to PMC5791972 (PLoS ONE, 2018):
Entries after “also recorded” stand apart in the source; their conditions may differ. Where two headings read alike, the source gives them in different places.

What was measured:
C57BL/6J mice = assay: Pavlovian fear learning and memory, non-manipulated mice; type: in vivo, mouse; details: 1 or 3 mg/kg oral, 2 h before
NMDA = type: binding, rat; details: 1.0E-06 M
CysLT1 (LTD4) (h) = target: T1, CysLT1 (LTD4) (h) (Homo sapiens, UniProt Q9Y271); type: binding; details: 1.0E-06 M
T1 construct: host or cells: CHO cells
T1 sequence (Q9Y271 1-337): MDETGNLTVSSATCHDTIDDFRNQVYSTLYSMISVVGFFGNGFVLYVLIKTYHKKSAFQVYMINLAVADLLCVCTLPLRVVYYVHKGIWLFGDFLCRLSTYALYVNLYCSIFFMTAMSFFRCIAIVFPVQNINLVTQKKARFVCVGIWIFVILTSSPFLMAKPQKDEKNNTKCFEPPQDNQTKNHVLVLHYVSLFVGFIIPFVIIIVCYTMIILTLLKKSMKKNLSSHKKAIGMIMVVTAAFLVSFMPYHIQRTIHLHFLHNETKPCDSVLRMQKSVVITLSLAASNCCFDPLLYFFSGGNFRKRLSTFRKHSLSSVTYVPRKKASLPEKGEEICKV

MC4 (h) = target: T2, MC4 (h) (Homo sapiens, UniProt P32245); type: binding; details: 1.0E-06 M
T2 construct: host or cells: CHO cells

M1 (h) = target: T3, M1 (h) (Homo sapiens, UniProt P11229); assay: biochemical; type: binding; details: 1.0E-06 M
T3 construct: host or cells: CHO cells
T3 sequence (P11229 1-460): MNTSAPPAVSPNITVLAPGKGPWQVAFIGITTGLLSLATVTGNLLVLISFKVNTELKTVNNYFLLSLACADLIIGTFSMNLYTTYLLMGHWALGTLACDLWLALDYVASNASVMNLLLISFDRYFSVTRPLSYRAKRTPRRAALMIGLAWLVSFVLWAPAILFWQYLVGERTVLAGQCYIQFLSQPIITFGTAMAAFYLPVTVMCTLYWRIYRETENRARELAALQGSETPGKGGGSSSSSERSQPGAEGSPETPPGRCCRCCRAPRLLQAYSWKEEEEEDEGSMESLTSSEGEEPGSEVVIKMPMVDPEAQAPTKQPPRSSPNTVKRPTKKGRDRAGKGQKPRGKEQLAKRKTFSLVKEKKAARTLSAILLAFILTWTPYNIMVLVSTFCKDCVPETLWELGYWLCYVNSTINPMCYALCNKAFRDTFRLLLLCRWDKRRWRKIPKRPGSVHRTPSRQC

5-HT2C (h) = target: T4, 5-HT2C (h) (Homo sapiens, UniProt P28335); type: binding; details: 1.0E-06 M
T4 construct: host or cells: HEK-293 cells
T4 sequence (P28335 33-458): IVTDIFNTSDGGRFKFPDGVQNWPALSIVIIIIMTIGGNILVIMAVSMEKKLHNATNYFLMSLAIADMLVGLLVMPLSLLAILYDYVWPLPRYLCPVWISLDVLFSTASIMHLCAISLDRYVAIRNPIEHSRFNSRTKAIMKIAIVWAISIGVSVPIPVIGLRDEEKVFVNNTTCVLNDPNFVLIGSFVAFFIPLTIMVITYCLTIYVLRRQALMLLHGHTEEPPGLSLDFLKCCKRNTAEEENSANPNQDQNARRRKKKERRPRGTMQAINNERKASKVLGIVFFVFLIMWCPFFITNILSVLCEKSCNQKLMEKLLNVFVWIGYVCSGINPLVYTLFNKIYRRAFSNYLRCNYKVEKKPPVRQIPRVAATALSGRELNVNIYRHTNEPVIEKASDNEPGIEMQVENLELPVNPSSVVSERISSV

VPAC1 (VIP1) (h) = target: T5, VPAC1 (VIP1) (h) (Homo sapiens, UniProt P32241); type: binding; details: 1.0E-06 M
T5 construct: host or cells: CHO cells
T5 sequence (P32241 31-457): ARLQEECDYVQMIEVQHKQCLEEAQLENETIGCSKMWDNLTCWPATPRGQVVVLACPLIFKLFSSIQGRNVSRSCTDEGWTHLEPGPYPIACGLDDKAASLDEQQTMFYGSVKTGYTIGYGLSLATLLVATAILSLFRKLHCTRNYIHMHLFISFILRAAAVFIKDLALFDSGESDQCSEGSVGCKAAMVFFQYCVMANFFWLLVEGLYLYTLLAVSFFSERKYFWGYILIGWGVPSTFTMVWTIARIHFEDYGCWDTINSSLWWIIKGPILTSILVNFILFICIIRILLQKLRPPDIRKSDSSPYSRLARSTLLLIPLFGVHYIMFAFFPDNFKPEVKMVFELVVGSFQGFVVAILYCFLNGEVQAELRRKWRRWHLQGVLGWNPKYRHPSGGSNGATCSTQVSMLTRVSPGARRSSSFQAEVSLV

PDE3A (h) = PDE3A (h) (Homo sapiens, UniProt Q14432); assay: biochemical; details: 1.0E-06 M
PDE3A (h), sequence (Q14432 whole entry): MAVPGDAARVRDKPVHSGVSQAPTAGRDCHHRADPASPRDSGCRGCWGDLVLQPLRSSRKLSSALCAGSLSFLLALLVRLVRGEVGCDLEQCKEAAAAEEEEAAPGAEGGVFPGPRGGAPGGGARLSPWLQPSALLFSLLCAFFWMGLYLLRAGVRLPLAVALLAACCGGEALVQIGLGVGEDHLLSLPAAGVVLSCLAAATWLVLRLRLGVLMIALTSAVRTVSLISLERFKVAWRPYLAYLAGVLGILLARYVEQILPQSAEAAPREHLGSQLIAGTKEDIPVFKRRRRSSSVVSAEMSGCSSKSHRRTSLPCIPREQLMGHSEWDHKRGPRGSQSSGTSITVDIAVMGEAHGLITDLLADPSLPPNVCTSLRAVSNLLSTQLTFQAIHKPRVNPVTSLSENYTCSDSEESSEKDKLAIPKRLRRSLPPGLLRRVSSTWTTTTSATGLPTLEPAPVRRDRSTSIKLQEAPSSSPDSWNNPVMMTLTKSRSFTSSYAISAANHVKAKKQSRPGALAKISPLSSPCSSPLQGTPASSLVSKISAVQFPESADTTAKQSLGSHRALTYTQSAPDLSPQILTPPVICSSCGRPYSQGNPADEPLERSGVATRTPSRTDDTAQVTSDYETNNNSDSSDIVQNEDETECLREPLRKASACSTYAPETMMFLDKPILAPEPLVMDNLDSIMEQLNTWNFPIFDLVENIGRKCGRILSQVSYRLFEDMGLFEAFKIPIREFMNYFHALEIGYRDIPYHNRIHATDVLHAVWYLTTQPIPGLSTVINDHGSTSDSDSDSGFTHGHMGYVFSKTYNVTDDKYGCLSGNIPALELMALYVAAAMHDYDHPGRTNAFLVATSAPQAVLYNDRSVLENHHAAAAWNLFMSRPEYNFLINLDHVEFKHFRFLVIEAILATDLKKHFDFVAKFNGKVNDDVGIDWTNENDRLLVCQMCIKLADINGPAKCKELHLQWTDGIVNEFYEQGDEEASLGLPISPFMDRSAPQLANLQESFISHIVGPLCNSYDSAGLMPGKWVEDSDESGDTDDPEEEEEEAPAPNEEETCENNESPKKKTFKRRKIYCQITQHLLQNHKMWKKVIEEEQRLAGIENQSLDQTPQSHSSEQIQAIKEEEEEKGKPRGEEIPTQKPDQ

T2 sequence (P32245 whole entry): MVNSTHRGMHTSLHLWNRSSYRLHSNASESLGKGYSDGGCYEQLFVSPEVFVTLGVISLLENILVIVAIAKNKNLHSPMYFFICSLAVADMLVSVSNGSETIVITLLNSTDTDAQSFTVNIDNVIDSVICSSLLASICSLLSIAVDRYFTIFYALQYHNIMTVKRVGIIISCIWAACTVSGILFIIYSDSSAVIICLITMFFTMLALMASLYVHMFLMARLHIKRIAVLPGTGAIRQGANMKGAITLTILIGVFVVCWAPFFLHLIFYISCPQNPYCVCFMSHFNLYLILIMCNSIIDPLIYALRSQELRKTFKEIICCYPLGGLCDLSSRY

Structure (SMILES): Cn1c(=O)n(CCCO)c(=O)c2c1nc(Oc1cccc(Cl)c1)n2Cc1ccc(Cl)cc1 [HC-070]
- CS-US fear learning (freezing) (C57BL/6J mice): without an effect; also recorded: did not affect fear learning
- fear memory expression to the CS (C57BL/6J mice): no drug effect
- fear memory expression to the context (C57BL/6J mice): without effect; also recorded: no drug effect

Structure (SMILES): Cn1c(=O)n(CCCO)c(=O)c2c1nc(Oc1cccc(OC(F)(F)F)c1)n2Cc1ccc(Cl)cc1 [HC-608]
- % Inhibition 1st (NMDA): 19%
- % Inhibition 2nd (NMDA): 3.2%
- % Inhibition Mean (NMDA): 11.1%
- inhibition at 1 µM (CysLT1 (LTD4) (h); read-out: % Inhibition 1st): 13.2%
- inhibition at 1 µM (CysLT1 (LTD4) (h); read-out: % Inhibition 2nd): 3.4%
- inhibition at 1 µM (CysLT1 (LTD4) (h); read-out: % Inhibition Mean): 8.3%
- inhibition at 1 µM (MC4 (h); read-out: % Inhibition 1st): 2.9%
- inhibition at 1 µM (MC4 (h); read-out: % Inhibition 2nd): -4.8%
- inhibition at 1 µM (MC4 (h); read-out: % Inhibition Mean): -1%
- inhibition at 1 µM (M1 (h); read-out: % Inhibition 1st): -1.6%
- inhibition at 1 µM (M1 (h); read-out: % Inhibition 2nd): 5.5%
- inhibition at 1 µM (M1 (h); read-out: % Inhibition Mean): 2%
- inhibition at 1 µM (5-HT2C (h); read-out: % Inhibition 1st): 12.1%
- inhibition at 1 µM (5-HT2C (h); read-out: % Inhibition 2nd): 12.6%
- inhibition at 1 µM (5-HT2C (h); read-out: % Inhibition Mean): 12.3%
- inhibition at 1 µM (VPAC1 (VIP1) (h); read-out: % Inhibition 1st): -9%
- inhibition at 1 µM (VPAC1 (VIP1) (h); read-out: % Inhibition 2nd): -8.4%
- inhibition at 1 µM (VPAC1 (VIP1) (h); read-out: % Inhibition Mean): -8.7%
- inhibition at 1 µM (PDE3A (h); read-out: % Inhibition 1st): 3.1%
- inhibition at 1 µM (PDE3A (h); read-out: % Inhibition 2nd): 0.2%
- inhibition at 1 µM (PDE3A (h); read-out: % Inhibition Mean): 1.7%
